Assay [1] relates to SMURF2 WW domain #3 (SMURF2-3). In kind it is binding.
Assay [2] concerns ~115 known WW domains (GST-fusion proteins). It counts as binding, mammalian.
The target of assay [3] is GST-SMURF2-WW3 (Homo sapiens, UniProt Q9HAU4). It counts as binding. As to conditions: pH 7.4.
GST-SMURF2-WW3, sequence (Q9HAU4 297-330): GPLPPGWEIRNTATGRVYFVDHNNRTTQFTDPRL

Turning to `CC[C@H](C)[C@H](NC(=O)[C@H](C)NC(=O)[C@H](CCC(=O)O)NC(=O)[C@H](CCSC)NC(=O)[C@H](Cc1ccc(O)cc1)NC(=O)[C@H](CCC(=O)O)NC(=O)[C@@H]1CCCN1C(=O)[C@@H]1CCCN1C(=O)[C@H](C)NC(=O)[C@@H](NC(=O)[C@@H]1CCCN1C(=O)[C@H](CC(C)C)NC(=O)[C@@H](NC(=O)[C@@H](NC(=O)[C@H](CCCNC(=N)N)NC(=O)[C@H](CCCNC(=N)N)NC(=O)[C@@H](N)CCSC)C(C)C)[C@@H](C)CC)[C@@H](C)O)C(=O)N[C@@H](CCCCNC(=O)CCCC[C@@H]1SC[C@@H]2NC(=O)N[C@@H]21)C(=O)O` [eVP40-WT peptide], the “interaction with SMURF2 WW domain #3 on array” value in assay [1] is recorded as “positive interaction”. Also, in assay [2], the “interaction with host WW domains on array” value was “interacted with a select number of host WW domains”. This compound gave a Bmax in assay [3] of 39 RU.

The values above are taken from publication PMC7918931 (Viruses, 2021).
